Source: PMC9653995, “New Positive TRPC6 Modulator Penetrates Blood–Brain Barrier, Eliminates Synaptic Deficiency and Restores Memory Deficit in 5xFAD Mice” (International Journal of Molecular Sciences, 2022)

Experiments:
5xFAD mice = assay: Contextual and cued fear conditioning test; assay type: in vivo, mouse; settings: 10 mg/kg i.p. daily for 14 days
Experimental: To analyze the effect of C20 on the cognitive status of diseased mice, a contextual and cued fear conditioning test was performed in the 5xFAD mice. Two WT cohorts and two 5xFAD cohorts of eight mice each were intraperitoneally injected (every day for 14 days) with either C20 (10 mg/kg) or an equal amount of vehicle.
Six-month-old 5xFAD and WT mice were intraperitoneally injected with C20 (10 mg/kg b.w. dissolved in ethanol (13.5%) and diluted in 0.9% saline (86.5%)) or an equal volume of ethanol diluted in 0.9% saline (vehicle) once daily for 14 days. To analyze the effect of C20 on cognitive behavior, mice were subjected to hippocampus-dependent contextual fear conditioning and hippocampus independent tone fear conditioning (n = 8 mice in each group).
According to a 3-day delay fear conditioning protocol, the conditioned stimulus is presented and overlapped by the presentation of the unconditioned stimulus. The experiments were performed using a standard conditioning chamber (25 cm × 20 cm × 30 cm) with a stainless steel floor connected to an electric shock generator. The chamber was housed in a soundproof isolation cubicle. Measurements were accomplished through two cameras (Web camera FI#2.0 8mm и Webcam Logitech C200, Apples, Switzerland), connected to a computer with video freeze software (AUTO_URAI_4 developer Dr. V.V. Sizov, Institute of Experimental Medicine, Saint Petersburg, Russia, I.P. Pavlov Department of Physiology, sizoff@list.ru).
To exclude possible freezing due to the novel environment, we allowed the mice to habituate to the chamber. On day 1 (habituation), we brought mice into the habituation room and placed them into a training chamber individually for 5 min without any cue.
On day 2 (training), we placed each mouse in the conditioning chamber for 2 min without any shock or tone. Then, mice received two repetitions of a tone (500 Hz, 55 dB) that simultaneously ended with a 2 s foot shock (0.3 mA, US) with 60 s inter-trial intervals. Mice were allowed to recover after the foot-shock for an additional 60 s before being removed to their home cage.
On day 3 (testing), mice were placed back in the familiar fear conditioning chamber, but in the absence of tones and foot shocks. The freezing behavior was measured for 180 s to test contextual memory retrieval. For the tone fear retrieval trial one hour after the contextual test, mice were placed in an altered conditioning chamber with black and white striped walls, a covered floor, and a vanilla extract scent. After 180 s of baseline in an altered conditioning recording, a tone similar to the one used during the fear conditioning training was presented for 180 s. The freezing behavior before and during the tone was measured.

[1] = In vitro stability in pooled mouse blood plasma; assay type: in vitro ADME; settings: 1 µM, 37 °C
Experimental: The stability of C20 was assessed during incubation with pooled mouse plasma samples for 4 h at 37 °C. To confirm the activity of blood plasma enzymes in the control substance, propantheline (Figure 4A) was used.
The compound C20, at a final concentration of 1 μM, was incubated in mouse plasma at 37 °C with moderate shaking at 300 rpm in a shaker-incubator. After 0, 15, 30, 60 and 240 min, the samples were mixed, aliquots were obtained, and the samples were analyzed by HPLC-MS/MS. Propantheline was used as a control compound. Incubation of compounds with plasma samples was carried out in duplicate. Overall, 100% was obtained as the amount of a substance determined using a mass spectrometer in blood plasma in a 0 min incubation time period.
A total of 3 µL of 100-fold C20 or propantheline substance (0.1 mM) was added to 297 µL of blood plasma preheated to 37 °C to a final concentration of 1 µM.
Aliquots of 30 μL for the time point T = 0 were transferred into microtubes with a capacity of 1.1 mL pre-filled with 180 μL of chilled MeCN with an internal standard of Tolbutamide (IS) at a concentration of 50 ng/mL. Mixed and kept at +4 °C for 15 min. […]
The values of the areas of chromatographic peaks of substances in the studied samples normalized to the area of IS were used for calculations. The 100% of the tested substance from the initial amount was determined at T = 0 min of incubation. […]

[2] = In vivo pharmacokinetics in plasma and brain after single i.p. injection; parameters: species or system CD-1 mice; settings: mice, 10 mg/kg i.p.
Experimental: Two-month-old CD-1 mice (males) were used for pharmacokinetic studies. CD-1 mice were obtained from Charles River GmbH and housed in the laboratory of bioanalytics of the ChemRar research institute. The number of animals in the study was kept at a minimum in terms of ethical principles and regulatory requirements.
The study was carried out on 20 mice. Five animals constituted the control group, which were not injected with the C20 substance. The remaining 15 animals were divided into 5 groups of 3 animals per time point. At least 12 h before the start of the experiment, the animals were deprived of food with free access to water.
All 15 animals from the experimental groups underwent a single intraperitoneal injection of the C20 formulation at a dose of 10 mg/kg (formulation containing 10% ethanol). After 0.25, 0.5, 1, 2, and 4 h, CO2 euthanasia was performed in each group of animals in accordance with the time point. Blood plasma and brain samples were obtained.
Blood was collected by cardiopuncture in a volume of 0.2 mL into polypropylene tubes containing 20 μL of 5% EDTA. Blood plasma was separated by centrifugation at 10,000 rpm for 10 min.
Pharmacokinetic analysis was performed by a non-compartmental method using the Phoenix WinNonlin 6.3 software package (Pharsight Corporation, Mountain View, CA, USA) and in accordance with SOP-BL-AN-027 “Calculation and analysis of parameters of pharmacokinetic and toxicokinetic studies. Statistical processing of results”.
Analysis of pharmacokinetic parameters was performed using averaged pharmacokinetic curves in the plasma and brain. The main pharmacokinetic parameters were determined:
The intensity of C20 penetration into the brain was assessed in terms of tissue availability (ft):(1) ft=AUCt/AUCk, where AUCt is the area under the pharmacokinetic curve in the tissue; AUCk is the area under the pharmacokinetic curve in blood plasma.

## COc1cc2c(cc1OC)C(c1cc3ccccc3oc1=O)=NC(C)(C)C2 [C20, 3-(3-,4-Dihydro-6,7-dimethoxy-3,3-dimethyl-1-isoquinolinyl)-2H-1-benzopyran-2-one]
5xFAD mice; 6-month-old 5xFAD mice, 5xFAD + vehicle 33.88 ± 15.09%
  freezing time to context: 67.00 ± 17.78%
5xFAD mice; 6-month-old 5xFAD mice, 5xFAD + vehicle 37.75 ± 8.25%
  freezing time to tone: 63.50 ± 13.38%
5xFAD mice; WT mice, WT + vehicle 58.25 ± 19.06%
  freezing time to context: 59.63 ± 17.53%
5xFAD mice; WT mice, WT + vehicle 69.25 ± 18.19%
  freezing time to tone: 67.75 ± 7.56%
[1]; after 4 h incubation
  initial amount remaining in mouse blood plasma: about 62%
[1]; during the first hour of incubation
  concentration remaining in mouse blood plasma: above 85%
[2]
  concentration in brain samples after 4 h: 10 ng/g
  half-life (t1/2) of elimination from plasma: 31.2 min
  half-life (t1/2) of excretion from the brain: 44.4 min
[2]; formulation with 10% ethanol
  maximum concentration in plasma: 789 ng/mL
[2]; first sampling point
  time of maximum concentration (plasma and brain): 15 min
[2]; ft = AUCt/AUCk
  index of tissue availability in the brain (ft) in relation to blood plasma: 1.05
